Results published in PubChem BioAssay (NCI).
Where “and” joins values, the source holds several entries; their conditions need not be identical. Equal values may be shown once.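 Test compounds were applied to cells in 96-well plates for 48 hours at 5 doses. Abbreviation: GI50, concentration required for 50% inhibition of growth. TGI is the concentration that stops growth completely.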

Experiments:
Assay in all cases: NCI tumour cell line growth inhibition, 48 h
[1] = system: MALME-3M melanoma
[2] = system: SF-539 CNS
[3] = system: MDA-MB-435
[4] = system: DU-145 prostate
[5] = system: HT29 colon
[6] = system: SK-MEL-28 melanoma
[7] = system: M14 melanoma
[8] = system: SK-MEL-2 melanoma

## O=C(CCCCCCCCC(=O)N/N=C\c1ccccc1O)N/N=C\c1ccccc1O
[1]
  GI50: 0.566 µM
  TGI: 17.7 µM
[2]
  GI50: 0.452 µM
  TGI: 17.4 µM
[3]
  GI50: 0.704 µM
  TGI: > 100 µM
[4]
  GI50: 0.579 µM
  TGI: 15.5 µM
[5]
  GI50: 4.62 µM
  TGI: > 36.6 µM
[6]
  GI50: 1.08 µM
  TGI: > 100 µM
[7]
  GI50: 0.306 µM
  TGI: 1.78 µM
[8]
  GI50: 0.469 µM
  TGI: > 36.8 µM

## COC(=O)c1nc(-c2ccccc2)oc1S(=O)(=O)Cc1ccccc1
[1]
  GI50: 1.73 µM
  TGI: 3.44 µM
[2]
  GI50: 11.2 µM
  TGI: 23.7 µM
[3]
  GI50: 11.1 µM
  TGI: 23.6 µM
[4]
  GI50: 3.46 µM
  TGI: 10.9 µM
[5]
  GI50: 2.44 µM
  TGI: 5.79 µM
[6]
  GI50: 7.15 µM
  TGI: 20.4 µM
[7]
  GI50: 3.87 µM
  TGI: 16.3 µM
[8]
  GI50: 12.7 µM
  TGI: 26.9 µM

## COc1ccc2c(c1)c(=O)oc1cc(OC/C(C)=N\O)ccc12
[1]
  GI50: > 100 µM
  TGI: > 100 µM
[2]
  GI50: 59.5 µM
  TGI: > 100 µM
[3]
  GI50: > 100 µM
  TGI: > 100 µM
[4]
  GI50: > 100 µM
  TGI: > 100 µM
[5]
  GI50: > 100 µM
  TGI: > 100 µM
[6]
  GI50: > 100 µM
  TGI: > 100 µM
[7]
  GI50: > 100 µM
  TGI: > 100 µM
[8]
  GI50: > 100 µM
  TGI: > 100 µM

## CCC1C2Cc3ccc(O)cc3C1(CC)CCN2C (stereo not given)
[1]
  TGI: > 100 µM
[2]
  TGI: > 100 µM
[3]
  TGI: > 100 µM
[4]
  TGI: > 100 µM
[5]
  TGI: > 100 µM
[6]
  TGI: > 100 µM
[7]
  TGI: > 100 µM
[8]
  TGI: > 100 µM

## COc1ccc(C2=CC(c3ccc4c(c3)OCO4)c3c(c4ccccc4oc3=O)O2)cc1OC (stereo not given)
[1]
  TGI: > 100 µM
[2]
  TGI: > 22.5 µM
[3]
  TGI: 9.25 µM
[4]
  TGI: > 100 µM
[5]
  TGI: > 100 µM
[6]
  TGI: > 100 µM
[7]
  TGI: > 100 µM
[8]
  TGI: > 100 µM

## CCN(CC)CCCC(C)Nc1ccnc2cc(Oc3ccccc3)ccc12 (stereo not given)
[1]
  GI50: 6.03 µM and 2.29 µM
  TGI: 12.3 µM and 4.47 µM
[2]
  GI50: 2.15 µM and 2 µM
  TGI: 4.35 µM and 4.28 µM
[3]
  GI50: 2.38 µM
  TGI: 6.21 µM and 7.27 µM
[4]
  GI50: 5.73 µM and 54.6 µM
  TGI: 22.4 µM and > 100 µM
[5]
  GI50: 0.627 µM and 1.12 µM
  TGI: 8.37 µM and 12 µM
[6]
  GI50: 1.73 µM and 1.99 µM
  TGI: 3.22 µM and 3.65 µM
[7]
  GI50: 1.77 µM and 1.79 µM
  TGI: 3.5 µM and 3.35 µM
[8]
  GI50: 3.05 µM and 2.36 µM
  TGI: 8.96 µM and 5.68 µM

## CN(C)CCN1C(=O)c2ccccc2N(C)c2ccccc21
[1]
  GI50: > 100 µM
  TGI: > 100 µM
[2]
  GI50: > 100 µM
  TGI: > 100 µM
[3]
  GI50: > 100 µM
  TGI: > 100 µM
[4]
  GI50: > 100 µM
  TGI: > 100 µM
[5]
  GI50: > 100 µM
  TGI: > 100 µM
[6]
  GI50: > 100 µM
  TGI: > 100 µM
[7]
  GI50: > 100 µM
  TGI: > 100 µM
[8]
  GI50: > 100 µM
  TGI: > 100 µM

## c1ccc2[nH]c(-c3ccc(-c4nccc5c4[nH]c4ccccc45)cc3)nc2c1
[1]
  GI50: 1.85 µM
  TGI: 3.61 µM
[2]
  GI50: 1.89 µM
  TGI: 3.68 µM
[3]
  GI50: 1.92 µM
  TGI: 4.27 µM
[4]
  GI50: 4.02 µM
  TGI: 16.2 µM
[5]
  GI50: 2.19 µM
  TGI: 4.43 µM
[6]
  GI50: 1.96 µM
  TGI: 3.75 µM
[7]
  GI50: 1.79 µM
  TGI: 3.57 µM
[8]
  GI50: 1.99 µM
  TGI: 4.34 µM

## O=C1Nc2ccccc2/C1=C/C(=O)c1coc2c1C(=O)c1ccccc1C2=O
[1]
  GI50: > 100 µM
  TGI: > 100 µM
[2]
  GI50: > 100 µM
  TGI: > 100 µM
[3]
  GI50: > 100 µM
  TGI: > 100 µM
[4]
  GI50: > 100 µM
  TGI: > 100 µM
[5]
  GI50: > 100 µM
  TGI: > 100 µM
[6]
  GI50: > 100 µM
  TGI: > 100 µM
[7]
  GI50: > 100 µM
  TGI: > 100 µM
[8]
  GI50: > 100 µM
  TGI: > 100 µM

## CC(C)(C)c1ccc(Oc2nccc(-c3c(-c4ccc(F)cc4)ncn3C3CCNCC3)n2)cc1
[1]
  GI50: 4.94 µM
  TGI: 9.38 µM
[2]
  GI50: 4.38 µM
  TGI: 8.03 µM
[3]
  GI50: 3.53 µM
  TGI: 7.04 µM
[4]
  GI50: 3.71 µM
  TGI: 7.06 µM
[5]
  GI50: 1.03 µM
  TGI: 4.17 µM
[6]
  GI50: 4.29 µM
  TGI: 8.06 µM
[7]
  GI50: 4.5 µM
  TGI: 8.46 µM
[8]
  GI50: 5.21 µM
  TGI: 9.1 µM

## COc1ccc(C(=O)OC2C(OC3C(O)COC(O[C@H]4C[C@H]5[C@@H]6CC=C7C[C@@H](O)CC[C@]7(C)[C@H]6CC[C@]5(C)[C@H]4[C@H](C)C(=O)CCC(C)C)C3OC(N)=O)OCC(O)C2O)cc1 (stereo not given in full)
[1]
  GI50: 0.182 µM
  TGI: 1.55 µM
[2]
  GI50: < 0.003 µM
  TGI: 0.0685 µM
[3]
  GI50: 0.0346 µM
  TGI: 0.547 µM
[4]
  GI50: 0.0285 µM
  TGI: 5.34 µM
[5]
  GI50: 0.0737 µM
  TGI: 4.27 µM
[6]
  GI50: 0.033 µM
  TGI: 0.137 µM
[7]
  GI50: 0.036 µM
  TGI: 0.183 µM
[8]
  GI50: 0.00527 µM
  TGI: 0.242 µM

## COc1ccc(C(=O)c2cc(OC)c(OC)c(OC)c2)cc1OC(=O)CCl
[1]
  TGI: > 100 µM
[2]
  GI50: < 0.01 µM
  TGI: 0.0541 µM
[3]
  GI50: < 0.01 µM
[4]
  GI50: 0.0322 µM
[5]
  GI50: 1.94 µM
  TGI: > 100 µM
[6]
  GI50: 0.358 µM
  TGI: > 100 µM
[7]
  GI50: < 0.0142 µM
[8]
  GI50: 0.436 µM
  TGI: > 100 µM

## COc1cc(/C=C/C(=O)c2cccc(Nc3nc(Nc4ccccc4)nc(Nc4ccccc4)n3)c2)cc(OC)c1OC
[1]
  GI50: 18.2 µM
  TGI: 79.3 µM
[2]
  GI50: 12 µM
  TGI: 34 µM
[3]
  GI50: 7.67 µM
  TGI: > 73.4 µM
[4]
  GI50: 5.91 µM
  TGI: > 100 µM
[5]
  GI50: 6.41 µM
  TGI: > 100 µM
[6]
  GI50: 4.02 µM
  TGI: 19.6 µM
[7]
  GI50: 24.1 µM
  TGI: > 100 µM
[8]
  GI50: 7.78 µM
  TGI: > 65.4 µM

## Cc1c(C(N)=O)sc2c1C(=O)N(Cc1ccccc1)C1=NN=C(c3ccc(Cl)cc3)CN12
[1]
  GI50: 3.29 µM
  TGI: 16.4 µM
[2]
  GI50: 3.39 µM
  TGI: 11 µM
[3]
  GI50: 4.9 µM
  TGI: 26.1 µM
[4]
  GI50: 3.44 µM
  TGI: 14.5 µM
[5]
  GI50: 4.8 µM
  TGI: 16.1 µM
[6]
  GI50: 5.67 µM
  TGI: 18.5 µM
[7]
  GI50: 2.38 µM
  TGI: 6.75 µM
[8]
  GI50: 6.1 µM
  TGI: 18.6 µM

## O=[N+]([O-])O.[Cu+2].[NH-]CC[NH-].[NH-]CC[NH-]
[1]
  GI50: > 10 µM
  TGI: > 10 µM
[2]
  GI50: > 10 µM
  TGI: > 10 µM
[3]
  GI50: > 10 µM
  TGI: > 10 µM
[4]
  GI50: > 10 µM
  TGI: > 10 µM
[5]
  GI50: > 10 µM
  TGI: > 10 µM
[6]
  GI50: > 10 µM
  TGI: > 10 µM
[7]
  GI50: > 10 µM
  TGI: > 10 µM
[8]
  GI50: > 10 µM
  TGI: > 10 µM
